Results on one compound are retold here after article PMC6121902, “Conjugation with Dihydrolipoic Acid Imparts Caffeic Acid Ester Potent Inhibitory Effect on Dopa Oxidase Activity of Human Tyrosinase” (International Journal of Molecular Sciences, 2018).

Broadly, the IC50 is the midpoint of a concentration-inhibition curve. As usually defined, the Km is the substrate concentration at which the rate is half of its maximum.

Several values for one entry are separate records, joined by “and”; a condition that tells them apart may be missing. Equal values may be shown once. Entries after “also recorded” stand apart in the source; their conditions may differ. Read-outs that look alike come from different tables or passages of the source.

For one data set, the system named is HBL cells. The data set is described as follows: MTT viability assay. Particulars: 25 or 50 μM, 24 h. In kind it is cell-based, human. The protocol: The effect of the inhibitors on cell viability was evaluated by phase contrast microscopy and by means of the 3-(4,5-dimethyl-2-thiazolyl)-2,5-diphenyl-2H-tetrazolium bromide (MTT) assay. HBL cells were treated with the compounds (25 or 50 μM) for 24 h. At the end of the incubation period, phase contrast images were taken and the MTT assay was performed to test the cytotoxicity of each compound.
Figure 4 Effect of caffeic acid derivatives on the viability of HBL cells. Cells were incubated for 24 h with the inhibitors at 25 or 50 µM. (a) Phase contrast microscopy images. Representative images are shown (n = 8) Bar size: 50 μm. (b) MTT viability assay. Cells were grown in 96-well plates to ~80% confluence in the presence or absence of the indicated compounds. After 24 h, MTT was added (1 mg/mL final concentration) and maintained in the culture media for 4 h. Cells were PBS-washed twice and solubilized in DMSO. Absorbance at 562 nm was measured and represented as a percentage of the control value. The mean ± SEM of 8 independent experiments is shown. **** p < 0.0001.
Cell viability was measured by the MTT assay. HBL cells were seeded into the wells of a 96-wells plate at a density of 10,000 cells in 200 μL cell culture media. The seeded cells were incubated for 18 h at 37 °C, then treated with the compounds (25 or 50 μM) for 24 h or left untreated. At the end of the incubation period, images were taken and the MTT assay was performed to test the cytotoxicity of the different caffeic acid derivatives.
(In general: Formazan colour is commonly taken as a measure of viable cells.)

In data set [1] the target is T1, tyrosinase from HBL human melanoma cells (Homo sapiens, UniProt P14679).
T1 construct: endogenous in cells; host or cells: HBL human melanoma cells (detergent-solubilized cell extract)
T1 sequence (P14679 19-529): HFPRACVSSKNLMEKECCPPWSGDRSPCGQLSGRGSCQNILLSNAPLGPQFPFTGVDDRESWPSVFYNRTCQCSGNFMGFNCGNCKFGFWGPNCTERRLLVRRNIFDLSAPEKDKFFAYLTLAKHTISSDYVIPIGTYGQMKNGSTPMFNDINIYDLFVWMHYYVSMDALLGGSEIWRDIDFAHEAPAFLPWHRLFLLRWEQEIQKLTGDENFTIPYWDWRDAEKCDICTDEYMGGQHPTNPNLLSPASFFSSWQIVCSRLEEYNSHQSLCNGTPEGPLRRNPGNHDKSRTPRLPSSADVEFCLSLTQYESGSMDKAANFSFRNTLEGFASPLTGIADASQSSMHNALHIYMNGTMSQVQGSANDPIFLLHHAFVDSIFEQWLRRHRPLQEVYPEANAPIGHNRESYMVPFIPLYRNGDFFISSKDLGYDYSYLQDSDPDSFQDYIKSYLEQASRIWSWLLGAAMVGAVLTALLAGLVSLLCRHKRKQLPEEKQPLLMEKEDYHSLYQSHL
The data set is described as follows: DO activity of human tyrosinase in HBL cell extracts (MBTH assay, 490 nm). Particulars: for Km: read-out: Km (apparent). It is filed as biochemical. As to the method:
In further experiments, the effect of LCAME and LCA was investigated on extracts from HBL human melanoma cells expressing tyrosinase, and the inhibition of DO activity was evaluated. DO activity was determined according to Winder and Harris with some minor modifications: cell extracts were incubated with 3-methyl-2-benzothiazolinone hydrazone (MBTH) and absorbance at 490 nm was measured every 10 min for 1 h.
Cells were solubilized in 1% Igepal, 1% phenylmethylsulfonyl fluoride, 50 mM phosphate buffer (pH 6.8) and centrifuged at 2000 rpm for 5 min.
DO activity determinations were performed according to Winder and Harris with minor modifications. Briefly, cell extracts (usually 50–100 µg protein/assay) were incubated with 5 mM MBTH and 2.5 mM L-DOPA in 50 mM phosphate buffer pH 6.8 in the presence of the indicated concentrations of the compound of choice in a 96-wells plate. DO activity was measured spectrophotometrically in a microplate reader every ten minutes for one hour and was expressed as the slopes calculated with the GraphPad Prism 7 software (Linear Regression, San Diego, CA, USA).
For the analysis of kinetic parameters, the assays were run as above, using different concentrations of L-DOPA (from 0.1 to 2.0 mM) and of the inhibitor (0, 10 and 25 μM) to build the Lineweaver–Burk plot.

A further data set relates to T2, human tyrosinase.
T2 construct: The oxidation of L-DOPA by cell-free HBL cell extracts was monitored spectrophotometrically at 490 nm; endogenous in cells; host or cells: HBL human melanoma cells (detergent-solubilized cell extract)
Kind of data set: Substrate test with HBL cell lysates and MBTH (absorbance at 490 nm). Particulars: different concentrations, over 1 h. It is filed as biochemical.

The next data set deals with mushroom tyrosinase. Kind of data set: Mushroom tyrosinase TH activity inhibition (dopachrome formation at 475 nm, L-tyrosine substrate). It is filed as biochemical. As to conditions: 10 min pre-incubation, L-tyrosine 1 mM, tyrosinase 20 U/mL, pH 6.8. The protocol:
The inhibition properties of LCAME were preliminarily investigated on mushroom tyrosinase by spectrophotometric monitoring of dopachrome formation, a method which is routinely used for evaluation of the activity of potential tyrosinase inhibitors. L-DOPA was used as the substrate to test DO activity while L-tyrosine was used to test TH activity. LCAME was incubated in 50 mM phosphate buffer in the presence of mushroom tyrosinase (20 U/mL) at room temperature. After 10 min, L-DOPA or L-tyrosine (1 mM final concentration) were added and the absorbance at 475 nm was measured at different times over 10 min. For comparative purposes the effects of CAME were evaluated as well. Stock methanolic solutions of LCAME or CAME, ranging in concentration from 0.02 to 20 mM concentration were prepared dissolving a proper amount of the compound of interest in methanol. 100 μL of these solutions were added to 2 mL of 50 mM phosphate buffer at pH 6.8 (final concentrations range: 0.001–1 mM), in the presence or in the absence of 20 U/mL mushroom tyrosinase. […] Spectrophotometric analysis was performed by measuring the absorbance at 475 nm for 10 min at 2 min intervals. […] In separate experiments, the assay was run as above with LCAME or CAME at 100 μM, in the presence or absence of L-DOPA, and after 10 min the mixture was analyzed by HPLC.

As for `COC(=O)/C=C/c1ccc(O)c(O)c1SCCC(S)CCCCC(=O)O` (centres unmarked) [LCAME, 2-S-lipoylcaffeic acid methyl ester], the “cytotoxicity (MTT)” value in the data set with HBL cells is listed as “nontoxic; also recorded: not cytotoxic”. In addition, the 50% inhibitory concentration (IC50) in data set [1] (DO activity, HBL cell extracts, L-DOPA 2.5 mM, read-out: IC50 (Mean ± SEM)) is 30 µM and 30.1 µM; against mushroom tyrosinase, 0.83 ± 0.09 µM. The Ki in data set [1] (DO activity, competitive model Km^app = Km (1 + [I]/Ki)) came to 34.7 ± 1.1 µM. Moreover, in data set [1] (L-DOPA 0.1 to 2.0 mM, LCAME 10 or 25 μM), the “type of inhibition (Lineweaver–Burk)” value is recorded as “competitive inhibition”. In addition, the Vmax in data set [1] ([LCAME] 10 μM) is 0.18 ± 0.02 ∆A490/min mg; in data set [1] ([LCAME] 25 μM) it was 0.19 ± 0.03 ∆A490/min mg. In addition, the Michaelis-Menten constant (Km) in data set [1] ([LCAME] 10 μM) was 1430 ± 300 µM; in data set [1] ([LCAME] 25 μM) it was 1950 ± 500 µM. The “inhibitory effect on DO activity” value in data set [1] (fixed concentration of 25 μM, HBL cell extracts) is on record as “significant inhibitory effect”. Also, the “change in the absorbance at 490 nm (substrate of human tyrosinase)” value in the data set on human tyrosinase is given as “did not induce any change”.
